Data on one compound can be found in US4861889A, “3-(2,3,4,5,6-pentafluorophenoxy)-8-azabicyclo[3.2.1]octanes” (Hoechst-Roussel Pharmaceuticals, Inc., priority 1988, dated 1989).

The nature of test [1]: antihypertensive activity, indirect tail cuff method (SHR). In kind it is in vivo, spontaneous hypertensive rat. As to conditions: treated three days, drop measured on third day, decrease in mean arterial blood pressure. How it is done:
The compounds of this invention are also useful as antihypertensive agents due to their ability to depress blood pressure in mammals. Antihypertensive activity is measured in the spontaneous hypertensive rat by the indirect tail cuff method described in "Methods in Pharmacology", A. Schwartz, Ed., Vol. I, Appleton-Century Crofts, New York, N.Y., 1971, p. 135. In this procedure a group of five animals is treated orally for three days with the test compound in relation to a control group of the same number. The drop in blood pressure is measured on the third day following administration. The antihypertensive activities of representative compounds, expressed as a decrease in mean arterial blood pressure (in mm Hg), are given in Table 3 along with the activity of a standard compound.

A short description of test [2]: phenyl-p-benzoquinone writhing assay (analgesic activity). It is filed as in vivo, male mice (Charles River, CD-1). The settings on record: Mus musculus, sc; mice, 20 mg/kg, s.c.; read-out: % Inhibition of writhing at a screening dose of 20 mg/kg, s.c. The protocol:
The compounds of this invention are useful as analgesic agents due to their ability to alleviate pain in mammals. The procedure employed to determine analgetic utility is a modification of the phenyl-p-benzoquinone writhing assay in mice, a standard assay for analgesia [Proc. Soc. Exptl. Bio. Med., 95, 729 (1957)]. Pursuant to the modified procedure phenyl-p-benzoquinone (Eastman, 12.5 mg) is dissolved in 5 ml of 95% ethanol and the solution is diluted to a total volume of 100 ml with distilled water. The solution is administered to the subject mice intraperitoneally at a dose of 10 ml per kg of body weight. A characteristic "writhe"an inward rotation of one or more feet with twisting and turning of the trunk, drawing in of the abdominal wall, lordosis and arching of the back, is produced.
A total of 28 male mice (Charles River, CD-1), weighing 18 to 30 grams, are employed for a time response. The subject animals receive food and water ad libitum. Test compounds are dissolved in distilled water, or suspended in distilled water containing one drop of a suitable surfactant, such as Tween-80.
Four groups of five animals (20 animals) are given the test compound subcutaneously (s.c.) or orally (p.o.) at 15, 30, 45 and 60 minutes prior to administration of the phenyl-p-quinone. A control group (2 animals per group) receive an equal volume of the vehicle. After the administration of the phenyl-p-quinone, the mice are place separately in one liter beakers, and after five minutes, are observed for ten minutes. The number of writhes for each animal is recorded. The following formula is used to compute the percent inhibition: [formula]
The time period with the greatest percent of inhibition is considered the peak time.
A general note: Writhing tests count abdominal constrictions after an irritant is injected.

Counter-ions that a name gives are not always drawn.

Turning to `Fc1ccc2c(CCCN3[C@@H]4CC[C@H]3C[C@H](Oc3c(F)c(F)c(F)c(F)c3F)C4)noc2c1` [(EXO)-8-[3-(6-FLUORO-1,2-BENZISOXAZOL-3-YL)PROPYL]-3-(2,3,4,5,6-PENTAFLUOROPHENOXY)-8-AZABICYCLO[3.2.1]OCTANE HYDROCHLORIDE], the “mm dec. in BP at 50 mg/kg p.o.” value in test [1] is listed as 48 mm. For the same compound, the inhibition in vivo at 20 mg/kg in test [2] came to 49%.
